For 52 compounds, EC50, IC50 and outcome results are on record in PubChem BioAssay AID179 (DTP/NCI, 2004).

The subject of this assay is CEM cells HIV-1 protection, formazan growth assay. Kind of assay: NCI AIDS Antiviral Assay. The following applies: for IC50: measured here: growth of uninfected CEM cells. Put shortly:
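Screen of anti-HIV-1 activity in human CEM cells using a formazan-based growth measurement at five drug concentrations. Hits with 50% or greater protection were repeated, and confirmation required reproducible complete protection.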

Activity calls are given as the source filed them.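 The calls were made as follows: active = compounds giving half or more protection of infected cells from virus-caused growth loss, again on retest; inactive = the rest.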 Some results are limits rather than exact numbers.

The term EC50 denotes the concentration that produces a half-maximal response. In general, IC50 refers to the concentration needed to halve the response being measured. A high value points to lower potency. Turning to `O=S(=O)(CCC[C@H]1[C@@H](CCOCc2ccccc2)C2CCCN1O2)c1ccccc1` (some centres undefined), the EC50 is more than 200 µM and the IC50 was determined as 95.5 µM. The like results for `CCN(CCCl)CCCNc1c2ccccc2nc2ccc(OC)cc12` were, in that order, more than 20 µM and 0.295 µM.

Regarding `O=[N+]([O-])/C(Cl)=C(\NCCO)C(Cl)=C(Cl)Cl`, the EC50 was more than 200 µM and the IC50 stood at 63.1 µM.

Take `COC(=O)C(C(=O)c1ccccc1)C(C(=O)C(=O)Nc1ccc(OC)cc1OC)C(=O)C(=O)c1ccc(C)cc1` (centres undefined): the EC50 was more than 457 µM and the IC50 stood at 407 µM. Taken in the same sequence, the figures for `CCC(=O)NC(Nc1cccc(F)c1)(C(F)(F)F)C(F)(F)F` were more than 200 µM and more than 200 µM.

`CC(=O)Oc1ccc([As](=O)(O)O)cc1N` had an EC50 of more than 200 µM and an IC50 of more than 200 µM. Consider `COc1ccc(C2C(Cl)C(=O)N2NC(=O)c2ccc(N)cc2)cc1` (centres undefined), for which the EC50 is more than 200 µM and the IC50 is more than 200 µM. In the case of `COc1ccc(I)c(CCC(C(=O)O)C2=CCC3(CC2)OCCO3)c1` (centres undefined), the EC50 was more than 145 µM and the IC50 is more than 145 µM. `O=C(NCCCn1ccnc1[N+](=O)[O-])C(=O)NCCCn1ccnc1[N+](=O)[O-]`: the EC50 was more than 200 µM and the IC50 was more than 200 µM. As for `CC(=O)c1c(-c2ccco2)c(C#N)c(=S)n(C2OC(CO)C(O)C(O)C2O)c1C` (centres undefined), the EC50 was more than 200 µM and the IC50 came out at 87.1 µM. Turning to `Nc1ncnc2oc(-c3cccs3)nc12`, the EC50 was more than 200 µM and the IC50 was more than 200 µM. Consider `COC1(O)C(=O)c2ccccc2OC1(OC)c1ccc(Cl)cc1` (centres undefined), for which the EC50 was more than 200 µM and the IC50 is 4.57 µM. On to `CSc1ccc(-c2cn3ccsc3n2)c(O)c1`, for which the EC50 was more than 85.1 µM and the IC50 was determined as 17.4 µM. Consider `O=C(OCCN1CCCC12CCCCC2)C(c1ccccc1)C1CCCC1` (centres undefined), for which the EC50 was more than 200 µM and the IC50 came to 7.76 µM. For `CSc1ncnc2c1ncn2CCC(=O)OC(C)(C)C`, the EC50 was more than 200 µM and the IC50 was more than 200 µM. On to `O=C1c2ccccc2S(=O)(=O)c2c1cccc2[N+](=O)[O-]`, for which the EC50 is more than 200 µM and the IC50 turned out to be 0.851 µM. As to `O=C(NCCCNC(=O)c1ccc2c(O)c(O)ccc2c1)c1ccc2c(O)c(O)ccc2c1`, the EC50 is more than 151 µM and the IC50 was determined as 15.5 µM. Taken in the same sequence, the figures for `O=c1[nH]c2ccc(C(F)(F)F)cc2nc1-c1ccccc1` were more than 200 µM and more than 200 µM. The like results for `N#CCCC(C=O)(CCC#N)CCC#N` were, in that order, more than 200 µM and more than 200 µM.

With `O=P(c1ccccc1)(c1ccccc1)C1CC=C2CCCCCC2C1` (centres undefined), the EC50 was more than 5.37 µM and the IC50 was more than 5.37 µM. For `COC(=O)c1cc(C(=CCC(=O)N[C@@H]2CC[C@@]3(C)[C@@H](CC[C@@H]4[C@@H]3CC[C@]3(C)[C@@H]([C@H](C)CCCC(C)C)CC[C@@H]43)C2)c2cc(Cl)c(OC)c(C(=O)OC)c2)cc(Cl)c1OC`, the EC50 was more than 200 µM and the IC50 was more than 200 µM. As for `CCCCNC(C)(C)C(SSSC(C)=O)c1ccco1` (centres undefined), the EC50 is more than 200 µM and the IC50 was found to be 56.2 µM. In the case of `Cc1ccc(S(=O)(=O)n2oc(=O)c(-c3ccccc3)c2N)cc1`, the EC50 is more than 200 µM and the IC50 came to 55 µM. With `COc1ccc(OC)c2c1C(=O)C1CC1(Br)C2=O` (centres undefined), the result was inactive.

As for `Cc1ccc(C=NC23CC4CC(CC(C4)C2)C3)cc1`, the EC50 is more than 257 µM and the IC50 was more than 257 µM. Take `CC(=O)OCc1cc(=O)n(C)c2c3c4c(cc12)c(C)cc(=O)n4CO3`: the EC50 was more than 7.94 µM and the IC50 came out at 1.26 µM.

For `COc1ccc2[nH]c3c(c2c1)[C@H](C)C[C@@H]1C(=O)N(c2ccccc2)C(=O)[C@H]31`, the result was inactive. Consider `O=C1OC(C2Cc3ccc4ccccc4c3C2=O)c2ccccc21` (centres undefined), for which the EC50 is more than 100 µM and the IC50 is 74.1 µM. The like results for `COc1cc(C(C#N)NNC(=O)Cc2ccccc2)cc(OC)c1OC` (centres undefined) were, in that order, more than 191 µM and 93.3 µM. Taken in the same sequence, the figures for `Cc1cc2c3c(c1)S(=O)(=O)c1cc(Cl)ccc1N3CCC2` were more than 200 µM and more than 200 µM. As for `CC(/C=C/c1ccccc1)=N/NS(=O)(=O)c1ccc(N)cc1`, the EC50 is more than 115 µM and the IC50 was more than 115 µM.

Take `OC1NC2CC3NC(O)C(O)NC3CC2NC1O` (centres undefined): the EC50 is more than 100 µM and the IC50 is more than 100 µM. Consider `N#CC1=C(N)Oc2cc(O)cc(O)c2C1c1ccccc1` (centres undefined), for which the EC50 is more than 200 µM and the IC50 was more than 100 µM. As to `COc1c(C(=O)NCCN(CCNC(=O)c2cccc(-c3cccc(C(=O)N(C)C)c3OC)c2OC)CCNC(=O)c2cccc(-c3cccc(C(=O)N(C)C)c3OC)c2OC)cccc1-c1cccc(C(=O)N(C)C)c1OC`, the outcome was inactive. For the compound `CCCc1cc(=O)oc2c3c(cc(OC(C)C)c12)O[C@@H](C)[C@H](C)[C@H]3O`, the EC50 was more than 200 µM and the IC50 is 11.7 µM. Taken in the same sequence, the figures for `O=C(O)C1CC2=C(CN1)Cc1ccccc12` (centres undefined) were more than 9.33 µM and more than 9.33 µM.

On to `O=c1nc2occc2cn1C1CC(O)C(CO)O1` (centres undefined), for which the EC50 is more than 513 µM and the IC50 is more than 513 µM.

For `CCOC(=O)C(C)(C(=O)OCC)C1(c2ccccc2)OC(=O)c2ccccc21` (centres undefined), the result was inactive.

As for `CCOC(=O)C(=O)C(CCC(=O)c1ccc2ccccc2c1O)C(=O)OCC` (centres undefined), the EC50 is more than 468 µM and the IC50 amounted to 389 µM. Taken in the same sequence, the figures for `CSCCCNC(=O)c1csc(-c2csc(CCNC(=O)CNC(=O)CNC(=O)CNC(=O)OC(C)(C)C)n2)n1` were more than 407 µM and more than 407 µM. For `Cc1nnc(-n2c(O)cc(=O)n(-c3ccccc3)c2=S)nc1/C=C/c1ccc(N(C)C)cc1`, the EC50 is more than 100 µM and the IC50 worked out at 5.62 µM. The like results for `O=C(O)COc1ccc(Cl)cc1Cc1cc(Cl)ccc1OCC(=O)O` were, in that order, more than 200 µM and 89.1 µM. Turning to `O=Nc1ccc(O)cc1Cc1ccccc1`, the EC50 was more than 200 µM and the IC50 was 3.63 µM. Regarding `COc1cc(/C=C2\NC(=O)N(/C=C3\C(=O)Oc4ccccc4C3=O)C2=O)ccc1O`, the EC50 was more than 200 µM and the IC50 was more than 200 µM. For the compound `CCOC(Cc1c(N)[nH]c(=S)[nH]c1=O)OCC`, the EC50 is more than 200 µM and the IC50 is more than 200 µM.

Regarding `O=c1[nH]cc(N=Nc2ccc(S(=O)(=O)Nc3nccs3)cc2)cc1O`, the EC50 was more than 195 µM and the IC50 turned out to be 170 µM. Taken in the same sequence, the figures for `O=C(Nc1ccc(Cl)cc1)P(=O)(O)c1ccccc1` were more than 200 µM and more than 200 µM. As to `Cc1cn(C2CC(N=[N+]=[N-])C(COP(=O)(OCC(=O)c3ccccc3)OCC(=O)c3ccccc3)O2)c(=O)[nH]c1=O` (centres undefined), the EC50 was 0.00741 µM and the IC50 worked out at 2 µM.

With `Cn1cnc([N+](=O)[O-])c1Sc1nc(N)nc2c1ncn2C1OC(CO)C(O)C1O` (centres undefined), the EC50 was more than 200 µM and the IC50 came out at 0.309 µM.

As to `C1CCCCC2(CCCCCCCCC3(CCC1)SCCS3)SCCS2`, the EC50 was more than 200 µM and the IC50 is more than 200 µM. `C1CCOC2(CCC3(CC2)OCCCCO3)OC1`: the result was inactive. As for `Oc1cccc2ccc(SSc3ccc4cccc(O)c4n3)nc12`, the EC50 is more than 200 µM and the concentration for half-maximal inhibition (IC50) was 20.4 µM.
